Laboratory results from PubChem BioAssay (NCI).
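Cells were grown in 96-well plates and exposed to each compound for 48 hours at five concentrations; endpoints were interpolated linearly between bracketing concentrations, or set to the highest concentration if not reached. The concentration for 50% growth inhibition is given as GI50. TGI: total growth inhibition.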

What was measured:
Assay in all cases: inhibition of tumour cell growth, NCI panel, 48 h
[1] = system: ACHN renal
[2] = system: SNB-75 CNS
[3] = system: SK-MEL-5 melanoma
[4] = system: HCT-116 colon
[5] = system: RXF 393 renal
[6] = system: IGROV1 ovarian
[7] = system: HOP-62 NSCLC
[8] = system: SK-OV-3 ovarian
[9] = system: SR leukemia
[10] = system: NCI-H460 lung

| SMILES | TGI [1] [µM] | TGI [2] [µM] | TGI [3] [µM] | TGI [4] [µM] | TGI [5] [µM] | TGI [6] [µM] | TGI [7] [µM] | TGI [8] [µM] | TGI [9] [µM] | TGI [10] [µM] | GI50 [1] [µM] | GI50 [2] [µM] | GI50 [3] [µM] | GI50 [4] [µM] | GI50 [5] [µM] | GI50 [6] [µM] | GI50 [7] [µM] | GI50 [8] [µM] | GI50 [9] [µM] | GI50 [10] [µM] |
| --- | --- | --- | --- | --- | --- | --- | --- | --- | --- | --- | --- | --- | --- | --- | --- | --- | --- | --- | --- | --- |
| CCc1oc2ccccc2c1C(=O)c1cc(Br)c(O)c(Br)c1 | 31.3 | 48.6 | 32.2 | 55.7 | 35 | > 100 | 85.7 | > 100 | 55.4 | 34.2 |  |  |  |  |  |  |  |  |  |  |
| O=C(O)c1ccc(NS(=O)(=O)c2cccc3cccnc23)cc1 | > 100 | > 100 | > 100 | > 100 | > 100 | > 100 | > 100 | > 100 | > 100 | > 100 | > 100 | > 100 | > 100 | > 100 | > 100 | > 100 | > 100 | > 100 | > 100 | > 100 |
| Cc1ccc(C(=O)N/N=C/c2cccc(Oc3ccccc3)c2)cn1 | > 100 | > 60.7 | > 100 | > 100 | > 100 | > 100 | > 100 | > 100 | 20.7 | > 100 | 45.9 | 4.85 | 5.21 | 4.69 | 18.9 | 19 | 60.2 | 13 | 1.01 | 4.05 |
| CC(=O)Oc1cccc2c1C(=O)C(Br)(Br)CCC2 | 12.8 | 16.5 | 14.4 | 9.66 | 12.6 | 30.6 | 22 | 24.9 | 8.19 | 43.6 |  |  |  |  |  |  |  |  |  |  |
| CC(=S)NNC(=O)c1ccncc1 | > 100 | > 100 | > 100 | > 100 | > 100 | > 100 | > 100 | > 100 | > 100 | > 100 |  |  |  |  |  |  |  |  |  |  |
| c1cncc(CNc2ccccc2-c2nnc(Nc3ccc4c(c3)OCCO4)o2)c1 | > 100 | > 100 | 2.03 | > 100 | 0.251 | > 100 | > 100 | 1.79 | > 36 | > 32.5 | 1.08 | 0.0527 | 0.0721 | 0.071 | 0.0343 | 0.5 | 0.181 | 0.0745 | 0.0424 | 0.148 |
| CN(C)CCCn1c2c3ccccc3ccc2c2oc(=O)c3ccccc3c21 | 15.7 | 12 | 23.6 | 5.05 | 2.75 | 23.5 | 15.4 | > 61.8 | 5.56 | 6.64 |  |  |  |  |  |  |  |  |  |  |
| CCOc1cc2ncc(C#N)c(Nc3ccc(F)c(Cl)c3)c2cc1NC(=O)/C=C/CN(C)C | 1.8 | > 3.71 | > 10 | 1.83 | 3.46 | 0.466 | > 10 | 0.139 | 2.4 | 4.26 | 0.0232 | 0.228 | 2.93 | 0.333 | 0.255 | 0.0269 | 1.27 | 0.022 | 0.414 | 0.655 |
| Cc1ccc2c(=O)[nH]sc2c1 | 21.6 | > 100 | 25.6 | > 100 | 28.6 | 35.3 | 36.7 | > 100 | 18.7 | > 100 |  |  |  |  |  |  |  |  |  |  |
| Cc1cc2c(C(N)=O)cccc2n1-c1nc2c(c(NCc3ccccc3)n1)CCCN2 | 0.791 | 0.342 | 0.181 | 0.631 | 0.273 | 0.439 | 0.454 | 0.813 | 0.525 | 0.661 | 0.236 | 0.153 | 0.0598 | 0.0831 | 0.126 | 0.194 | 0.217 | 0.32 | 0.117 | 0.232 |
| N#CSCC1CC(O)(c2ccccc2)C(c2ccccc2)C(c2ccc(F)cc2)O1 (stereo not given) | 11.4 | 45.2 | 17.2 | 2.9 | 4.4 | 7.6 | 24.3 | > 90.6 | 3.02 | 18.1 | 3.42 | 7.63 | 4.84 | 1.28 | 2.22 | 1.69 | 8.81 | 28.6 | 0.344 | 4.53 |
| O=C(Nc1ccc2oc(=O)c(C(=O)O)cc2c1)Oc1ccccc1 | > 100 | > 100 | > 100 | > 100 | > 100 | > 100 | > 100 | > 100 | > 100 | > 100 |  |  |  |  |  |  |  |  |  |  |
| COc1cc2c(cc1OC)[C@@H](C(O)c1ccccc1)NCC2 (stereo not given in full) | > 100 | > 100 | > 100 | > 100 | > 100 | > 100 | > 100 | > 100 | > 100 | > 100 |  |  |  |  |  |  |  |  |  |  |
| COC1=C(C(=O)OC(C)(C)C)[C@]2(C)C(C(=O)OC(C)(C)C)C(OC)=C(C(=O)OC(C)(C)C)[C@]2(C)C1C(=O)OC(C)(C)C (stereo not given in full) | > 100 | > 100 | > 100 | > 100 | > 100 | > 100 | > 100 | > 100 | > 100 | > 100 |  |  |  |  |  |  |  |  |  |  |
| N#CC(C#N)=CN1CCN(C(=O)c2ccccc2)C1=S | 43.6 | > 100 | 50.1 | > 100 | 70.7 | > 100 | > 100 | > 100 | 79.9 | 66.5 | 18.8 | > 100 | 23.3 | 34 | 22.7 | 28.2 | > 100 | 66.7 | 18.8 | 20 |
| C=C1C(=O)O[C@@H]2C[C@@H](C)[C@@H]3[C@@H](OC4OC(COC(C)=O)C(O)C(O)C4O)CC(=O)[C@@]3(C)C[C@H]12 (stereo not given in full) | 0.987 | 15.3 | 4.86 | 1.88 | 4.21 | 6.2 | 31.6 | 37.4 | 7.53 | 28.7 |  |  |  |  |  |  |  |  |  |  |
| Cn1c(=O)c2[nH]c(COCc3nc4c([nH]3)c(=O)n(C)c(=O)n4C)nc2n(C)c1=O | > 100 | > 100 | > 100 | > 100 | > 100 | > 100 | > 100 | > 100 | > 100 | > 100 |  |  |  |  |  |  |  |  |  |  |
| CC(=O)OC[C@@H]1[C@H]2CC(=O)O[C@H]2C[C@H]1OC(C)=O | > 100 | > 100 | > 100 | > 100 | > 100 | > 100 | > 100 | > 100 | > 100 | > 100 |  |  |  |  |  |  |  |  |  |  |
| COc1ccc(C=NC23CC4CC(CC(C4)C2)C3)cc1 | > 100 | > 100 | > 100 | > 100 | > 100 | > 100 | > 100 | > 100 | > 100 | > 100 |  |  |  |  |  |  |  |  |  |  |
| Cn1c2ccccc2c2nnc(N/N=C/c3ccccn3)nc21 | > 21.4 | 6.78 | 0.806 | > 38.4 | > 42.3 | > 23.6 | 6.02 | 21.9 | > 100 | 5.69 | 0.35 | 1.09 | 0.24 | 0.349 | 2.8 | 0.44 | 0.337 | 0.421 | 0.23 | 0.346 |
| O=C(Nc1nccs1)c1cc(C2=CC=CC([N+](=O)[O-])C=C2)nc(=S)[nH]1 (stereo not given) | > 100 | > 100 | > 100 | > 100 | > 100 | > 100 | > 100 | > 100 | > 100 | > 100 |  |  |  |  |  |  |  |  |  |  |
| COC1CC(OS(=O)(=O)c2ccc(C)cc2)C(OS(=O)(=O)c2ccc(C)cc2)C(COS(=O)(=O)c2ccc(C)cc2)O1 (stereo not given) | 12.7 | 2.48 | 25.7 | > 100 | 4.64 | 17.2 | 5.09 | 8.62 | 33.6 | 24.7 |  |  |  |  |  |  |  |  |  |  |
| CC1(C)N=C(N)N=C(N)N1c1cccc(CCCCc2ccc(S(=O)(=O)F)cc2Cl)c1 | > 100 | 23.9 | 16.4 | > 37.7 | > 87.3 | > 38.5 | 20.7 | > 100 | > 49.5 | > 38.6 | 8.66 | 2.74 | 1.87 | 1.06 | 9.46 | 0.313 | 5.72 | 24.6 | 0.456 | 0.465 |
| O=C1C(Cl)=C(N2CCOCC2)C(=O)c2ccccc21 | 3.48 | 27.8 | 19.4 | 3.37 | 3.26 | 6.74 | 31.3 | 32.2 | 7.87 | 42.8 | 1.99 | 14.2 | 6.82 | 1.86 | 1.85 | 3.33 | 17.4 | 18.3 | 2.77 | 20.2 |
| NC(=O)C1=C(c2ccccc2)c2ccccc2C1=O | 23.5 | 36.2 | 33.6 | 34.9 | 35.9 | 30.6 | 28.3 | 33.2 | 26.3 | 33.4 |  |  |  |  |  |  |  |  |  |  |
| COc1ccc(C2=C(c3cn(C)c4ccccc34)C(=O)NC2=O)cc1OC | > 25 | 7.08 | > 22.3 | > 25 | > 25 | > 25 | > 25 | > 25 | > 25 | > 25 | 6.35 | 0.743 | 6.11 | 6.68 | 6.44 | 7.99 | 11.8 | 6.72 | 2.48 | 8.52 |
